Results taken from the Kinase Knowledgebase extract (Sharma et al. 2016).

Key:
MAPK14 (murine) = test: Inhibition of MAPK14 Kinase Activity
MAPK14 (human) = MAPK14 (human) (UniProt Q16539); test: Inhibition of LPS Induced TNF-alpha Release in Human PBMC
Chain of MAPK14 (human) (Q16539 whole entry, looked up): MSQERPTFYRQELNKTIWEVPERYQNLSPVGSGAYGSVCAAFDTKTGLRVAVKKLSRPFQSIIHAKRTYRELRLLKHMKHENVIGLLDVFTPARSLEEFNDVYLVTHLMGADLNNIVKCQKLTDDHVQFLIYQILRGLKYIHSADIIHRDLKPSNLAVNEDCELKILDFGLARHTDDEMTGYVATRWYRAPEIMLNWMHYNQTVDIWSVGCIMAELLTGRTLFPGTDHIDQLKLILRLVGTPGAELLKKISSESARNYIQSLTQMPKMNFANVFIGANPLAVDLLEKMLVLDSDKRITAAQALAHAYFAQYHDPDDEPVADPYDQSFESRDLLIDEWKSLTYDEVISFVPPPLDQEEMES

Structure (SMILES)	IC50 (MAPK14 (murine)) [nM]	IC50 (MAPK14 (human)) [nM]
CN1CCC(O)(c2nc(-c3ccc(F)cc3)c(-c3ccncc3)o2)CC1	350	–
Fc1ccc(-c2nc(C3CCNCC3)oc2-c2ccnc(NC3CCCCC3)n2)cc1	11	9
CN1CCC(O)(c2nc(-c3ccc(F)cc3)c(-c3ccncc3)[nH]2)CC1	90	–

Next, values leading:

IC50 (MAPK14 (murine)) [nM]	IC50 (MAPK14 (human)) [nM]	Structure (SMILES)
4	–	C[C@H](Nc1cc(-c2sc(C3CCNCC3)nc2-c2ccc(F)cc2)ccn1)c1ccccc1
450	–	CN1CCC(O)(c2nc(-c3ccc(F)cc3)c(-c3ccncc3)s2)CC1
6	1	C[C@@H](Nc1nccc(-n2c(-c3ccc(F)cc3)nc3nc(N4CCN(C)CC4)ccc32)n1)c1ccccc1
15	0.2	Fc1ccc(-c2nc(C3CCNCC3)oc2-c2ccnc(NC3CCCCC3)c2)cc1
